Literature values, collected in patent US20210017202A1, “SPHINGOMYELIN-DERIVED LIPID AND METHOD FOR PRODUCING SAME” (NOF CORPORATION, priority 2018, published 2021).

Conditions: liposome with cholesterol

Row | amount hydrolyzed (aqueous solution at pH2, 4 hr) | amount of hydrolysate (aqueous solution at pH2, after 20 hr) | Compound
1 | about 40% | – | CCCCCCCCCCCCCCCCCC(=O)OC[C@H](COP(=O)([O-])OCC[N+](C)(C)C)OC(=O)CCCCCCCCCCCCCCCCC [distearoylglycerophosphocholine]
2 | – | less than 5% | sphingomyelin
